Results as given in PubChem BioAssay (NCI).
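Five compound concentrations were applied to cells in 96-well plates for 48 hours; endpoints were derived by simple linear interpolation of the resulting dose-response curve. The concentration for 50% growth inhibition is given as GI50. TGI marks complete inhibition of growth.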

Legend:
Test in all cases: NCI anticancer screen, dose series, 48 h
[1] = test system: OVCAR-4 ovarian
[2] = test system: DU-145 prostate
[3] = test system: MALME-3M melanoma
[4] = test system: OVCAR-5 ovarian
[5] = test system: SNB-19 CNS
[6] = test system: SF-268 CNS
[7] = test system: SNB-75 CNS
[8] = test system: SN12C renal
[9] = test system: HOP-92 NSCLC
[10] = test system: UACC-62 melanoma
[11] = test system: OVCAR-3 ovarian
[12] = test system: OVCAR-8 ovarian
[13] = test system: RPMI-8226 leukemia
[14] = test system: RXF 393 renal
[15] = test system: LOX IMVI melanoma
[16] = test system: HCT-15 colon
[17] = test system: MCF7 breast
[18] = test system: COLO 205 colon
[19] = test system: T-47D breast
[20] = test system: SF-539 CNS
[21] = test system: EKVX NSCLC
[22] = test system: A549 NSCLC
[23] = test system: UACC-257 melanoma
[24] = test system: BT-549 breast
[25] = test system: K-562 leukemia
[26] = test system: NCI-H460 lung
[27] = test system: PC-3 prostate
[28] = test system: 786-0 renal
[29] = test system: MDA-MB-231 breast
[30] = test system: KM12 colon
[31] = test system: HCC-2998 colon
[32] = test system: SK-MEL-5 melanoma
[33] = test system: SK-MEL-2 melanoma
[34] = test system: A498 renal
[35] = test system: NCI-H226 lung
[36] = test system: MOLT-4 leukemia
[37] = test system: CCRF-CEM leukemia
[38] = test system: SF-295 CNS
[39] = test system: ACHN renal
[40] = test system: NCI/ADR-RES ovarian
[41] = test system: SK-OV-3 ovarian
[42] = test system: UO-31 renal
[43] = test system: HCT-116 colon
[44] = test system: HT29 colon
[45] = test system: TK-10 renal
[46] = test system: HL-60(TB) leukemia
[47] = test system: SW-620 colon
[48] = test system: CAKI-1 renal
[49] = test system: SK-MEL-28 melanoma
[50] = test system: HOP-62 NSCLC
[51] = test system: M14 melanoma
[52] = test system: U251 CNS
[53] = test system: MDA-MB-435
[54] = test system: HS 578T breast
[55] = test system: IGROV1 ovarian
[56] = test system: SR leukemia
[57] = test system: NCI-H23 lung

Work on `CC(C)(C)c1ccc(C(=O)Nc2sc3c(c2C(N)=O)CCC(O)C3)cc1` (centres undefined) yielded a GI50 [1] of 747 nM, a TGI [1] of 17.1 µM and a GI50 [2] of 2700 nM. For the same compound, the TGI [2] was 17.4 µM, the GI50 [3] was 4.16 µM and the TGI [3] was 17 µM. For the same compound, the GI50 [4] was 3.14 µM, the TGI [4] was 17.4 µM and the GI50 [5] was 8.94 µM. It also gave a TGI [5] of 21.2 µM, a GI50 [6] of 4.39 µM and a TGI [6] of 17.9 µM. For the same compound, the GI50 [7] was 3.18 µM, the TGI [7] was 15.1 µM and the GI50 [8] was 6.33 µM. It also gave a TGI [8] of 22.2 µM, a GI50 [9] of 2740 nM and a TGI [9] of 16.5 µM. The GI50 [10] was 333 nM, the TGI [10] was 19.9 µM and the GI50 [11] was 3.11 µM. The TGI [11] was 13.3 µM, the GI50 [12] was 2640 nM and the TGI [12] was 87.4 µM. For the same compound, the GI50 [13] was 2000 nM, the TGI [13] was 5.42 µM and the GI50 [14] was 1770 nM. For the same compound, the TGI [14] was 4.93 µM, the GI50 [15] was 228 nM and the TGI [15] was 1750 nM. It also gave a GI50 [16] of 729 nM, a TGI [16] of 10.4 µM and a GI50 [17] of 753 nM. The TGI [17] was 10.5 µM, the GI50 [18] was 377 nM and the TGI [18] was 1720 nM. For the same compound, the GI50 [19] was 625 nM, the TGI [19] was 14.8 µM and the GI50 [20] was 1390 nM. The TGI [20] was 7.19 µM, the GI50 [21] was 3.52 µM and the TGI [21] was 18.5 µM. It also gave a GI50 [22] of 2230 nM, a TGI [22] of 33 µM and a GI50 [23] of 1270 nM. The TGI [23] was 10.1 µM, the GI50 [24] was 3.13 µM and the TGI [24] was 14.2 µM. It also gave a GI50 [25] of 50.7 nM, a TGI [25] of 1220 nM and a GI50 [26] of 493 nM. The TGI [26] was 10.6 µM, the GI50 [27] was 2770 nM and the TGI [27] was 16.4 µM. It also gave a GI50 [28] of 1980 nM, a TGI [28] of 6.35 µM and a GI50 [29] of 2170 nM. It also gave a TGI [29] of 5.32 µM, a GI50 [30] of 365 nM and a TGI [30] of 3.15 µM. The GI50 [31] was 1050 nM, the TGI [31] was 6.78 µM and the GI50 [32] was 908 nM. For the same compound, the TGI [32] was 3.7 µM, the GI50 [33] was 4.46 µM and the TGI [33] was 19 µM. It also gave a GI50 [34] of 1460 nM, a TGI [34] of 4.79 µM and a GI50 [35] of 2960 nM. For the same compound, the TGI [35] was 27 µM, the GI50 [36] was 1650 nM and the TGI [36] was 11.5 µM. The GI50 [37] was 2010 nM, the TGI [37] was 10.6 µM and the GI50 [38] was 582 nM. It also gave a TGI [38] of 2540 nM, a GI50 [39] of 321 nM and a TGI [39] of 13.2 µM. The GI50 [40] was 2330 nM, the TGI [40] was 31.7 µM and the GI50 [41] was 3.44 µM. It also gave a TGI [41] of 19.2 µM, a GI50 [42] of 2030 nM and a TGI [42] of 12.8 µM. It also gave a GI50 [43] of 1140 nM, a TGI [43] of 11.5 µM and a GI50 [44] of 569 nM. For the same compound, the TGI [44] was 3.23 µM, the GI50 [45] was 4.37 µM and the TGI [45] was 18.4 µM. For the same compound, the GI50 [46] was 1770 nM, the TGI [46] was 15 µM and the GI50 [47] was 597 nM. For the same compound, the TGI [47] was 11 µM, the GI50 [48] was 109 nM and the TGI [48] was 3.61 µM. It also gave a GI50 [49] of 2950 nM, a TGI [49] of 15.1 µM and a GI50 [50] of 1420 nM. It also gave a TGI [50] of 8.65 µM, a GI50 [51] of 995 nM and a TGI [51] of 4.71 µM. It also gave a GI50 [52] of 3.95 µM, a TGI [52] of 19.6 µM and a GI50 [53] of 422 nM. For the same compound, the TGI [53] was 15.6 µM, the GI50 [54] was 4.18 µM and the TGI [54] was 35.1 µM. For the same compound, the GI50 [55] was 3.24 µM, the TGI [55] was 18.5 µM and the GI50 [56] was 312 nM. It also gave a TGI [56] of 4.87 µM, a GI50 [57] of 4.16 µM and a TGI [57] of 22.8 µM.
